Results as given in patent US20130085115A1, “COMBINATION THERAPY FOR LYMPHOMA” (Celgene Corporation, priority 2011, published 2013).
Like-named read-outs stand apart in the source and are kept apart here.

Legend:
CTCL cells = experiment: Apoptosis by Annexin V-FITC flow cytometry in CTCL cell lines; assay type: cell-based, Human; settings: Annexin V assay measured by flow cytometry; FIGS. 5A-5D
Procedure: Human CTCL cell lines (Hut78, SeAx, and MyLa) were grown in RPMI 1640 medium supplemented with 10% heat-inactivated fetal bovine serume (FBS), glutamine (2 mM) and streptomycin (100 μg/ml) at 37° C., 5% CO2 and 95% humidity.
Romidepsin was used in a concentration ranging from 0.25 nM to 10 μM. 5-azacitidine was used in a concentration ranging from 500 nM to 10 μM. After 24 to 72 hours of the combined drug treatment, the levels of apoptosis and necrosis were measured by flow cytometry with Annexin V-FITC detection kit.

[1] = cited from earlier work

Structure (SMILES)	apoptosis (CTCL cells)	solubility ([1]; acetone, ethanol and methyl ketone)	solubility ([1]; dimethylsulfoxide (DMSO))	solubility ([1]; ethanol/water (50/50), propylene glycol and polyethylene glycol)	solubility ([1]; water, water-saturated octanol, 5% dextrose in water, N-methyl-2-pyrrolidone, normal saline and 5% Tween 80 in water)
Nc1ncn([C@@H]2O[C@H](CO)[C@@H](O)[C@H]2O)c(=O)n1 [5-azacitidine, 4-amino-1-β-D-ribofuranozyl-s-triazin-2(1H)-one]	21.4%	insoluble	soluble	slightly soluble	sparingly soluble
C/C=C1\NC(=O)[C@H]2CSSCC/C=C/[C@H](CC(=O)N[C@H](C(C)C)C(=O)N2)OC(=O)[C@H](C(C)C)NC1=O [romidepsin, (1S,4S,7Z,10S,16E,21R)-7-ethylidene-4,2′-bis(1-methylethyl)-2-oxa-12,13-dithia-5,8,20,23-tetrazabicyclo[8.7.6]tricos-16-ene-3,6,9,19,22-pentone]	18.8%				
